# Tested on: neointestine
# Test: GLP-2 treatment of rats bearing tissue-engineered small intestine: morphometry and SGLT1 expression
# Format: in vivo, rat
# Method: Neointestinal cysts were engineered by seeding biodegradable polymers with neonatal rat intestinal organoid units. The implantation was also performed with small intestine organoid units that had been labeled with GFP to distinguish and verify engineered tissue from host tissue (FIG. 36). Confirmation of GFP production was obtained by simultaneous in vitro culture of the organoid units. The cysts were matured and anastomosed to the native jejunum of syngenic adult recipients. Histology and surface area calculations were performed, as well as Northern blot and localization analysis of the Na+/glucose cotransporter (SGLT1). GLP-2 treatment augmented the absorptive surface area of engineered intestine […]. Animals were treated with [[…]]GLP-2 (twice daily, 1 μg/g body weight), a long-acting analogue of GLP-2, or vehicle alone (control) for 10 days. Rats were then sacrificed and tissues harvested for analysis. Histological parameters and surface area determinations were done using computer-based morphometry.
# [1] = [Gly2]GLP-2 twice daily 1 μg/g body weight, 10 days, mean±S.D.
# [2] = [Gly2]GLP-2 twice daily 1 μg/g body weight, 10 days, mean±S.D., p < 0.05
substance,measurement,setting,value
"[Gly2]GLP-2 (HGDGSFSDEMNTILDNLAARDFINWLIQTKITD; Glucagon-like peptide 2; UniProt P01275 146-178, looked up, variant A2G) [a long-acting analogue of GLP-2]",SGLT1 mRNA expression in the neointestine,"Northern blot, vs vehicle control",two-fold increase
same,Crypt Width,[1],63 ± 6 microns
same,Villus Width,[1],114 ± 32 microns
same,Surface Area (mucosal amplification ratio),[2],7.3 ± 1.4
same,Villus Height,[2],456 ± 23 microns
same,SGLT1 expression topography,localization analysis,unperturbed
same,Expansion of absorptive surface area,"vs vehicle control, 10 days",40%
